Data: patent US20030032674A1, “Use of unsaturated fatty acids to treat severe inflammatory diseases” (priority 2001, published 2003)

Experiments:
[1] = tested on: IL-1α expression; assay: IL-1α immunoblot in RAW 264.7 cells; assay type: cell-based, murine; conditions: lauric acid 1, 10, 50, 100 μM with BSA, 11 h
Experimental: Cell culture—RAW 264.7 cells (a murine macrophage-like cell line, ATCC TIB-71), 293T cells (a human embryonic kidney cell line, provided by Sam Lee, Beth Israel Hospital. Boston, Mass.), and HT-29 cells (a human colon adenocarcinoma cell line, ATCC HTB-38) were cultured in Dulbecco's modified Eagle's medium (DMEM) containing 10% (v/v) heat-inactivated fetal bovine serum (FBS, Intergen) and 100 units/ml Penicillin and […] Streptomycin (GIBCO-BRL) at 37° C. in a 5% CO2/air environment. Cells (2×10^6) were plated in 60-mm dishes and cultured for an additional 18 hours to allow the number of cells to approximately double. Cells were maintained in serum-poor (0.25% FBS) medium for another 18 hours prior to the treatment with indicated reagents.
Preparation of fatty acids-albumin complexes—All fatty acids were solubilized in ethanol, and then combined with fatty acid-free and low-endotoxin BSA at a molar ratio of 10:1 (fatty acid: albumin) in serum-poor medium (0.25% FBS). […]
After 11 h, cell lysates were analyzed by COX-2, iNOS, IL-1α, or GAPDH immunoblot using a Western blot analysis.
RAW 264.7 cells were pretested with various concentrations (5, 10, 20, and 50 μM) of docosahexaenoic acid (C22:6n-3) for 3 hours, and then stimulated with LPS (100 ng/ml) for 8 hours and analyzed by COX-2, iNOS, IL-1 a or GAPDH immunoblot.

[2] = target: T1, TLR2 (Homo sapiens, UniProt O60603); assay: NFκB reporter in TLR2-transfected 293T cells; assay type: cell-based; conditions: PamCAG 100 ng/ml
T1 construct: expressed in transfected cells; host or cells: 293T (stated not to express TLR2)
From the text: Plasmids and DNA Constructs—All plasmids and constructs were obtained or made as reported in either S. H. Rhee and D. Hwang, “Murine TOLL-like receptor 4 confers lipopolysaccaride responsiveness as determined by activation of NFκB and expression of the inducible cyclooxygenase,” Journal of Biological Chemistry, vol. 275, pp. 34035-34040 (2000); and J. Y. Lee et al., “Saturated fatty acids, but not unsaturated fatty acids, induce the expression of cyclooxygenase-2 mediated through TOLL-like receptor 4,” Journal of Biological Chemistry, vol. 276, pp. 16683-16689 (2001). Briefly, the luciferase reporter plasmids (pGL2) containing the promoter region of the murine COX-2 gene (−3201/+93 or −1017/+93) were provided by David Dewitt (Michigan State University, East Lansing, Mich.). To prepare the wild-type COX-2 promoter fragment, polymerase chain reaction (PCR) was performed with the primers named Kpn-COX2-For and Hind-COX2-Rev using the murine COX-2 (−1017/+93) luciferase reporter plasmid as a template. To prepare the mutant COX-2 promoter fragment containing mutated NFκB site, Kpn-COX2-Fmut and Hind-COX2-Rev were used as primers. […]
Acylation by saturated fatty acids of bacterial lipopeptides is also required for the activation of TLR2. […] After 18 hr, luciferase activities were determined. […]

T1 sequence (O60603 21-784, species assumed): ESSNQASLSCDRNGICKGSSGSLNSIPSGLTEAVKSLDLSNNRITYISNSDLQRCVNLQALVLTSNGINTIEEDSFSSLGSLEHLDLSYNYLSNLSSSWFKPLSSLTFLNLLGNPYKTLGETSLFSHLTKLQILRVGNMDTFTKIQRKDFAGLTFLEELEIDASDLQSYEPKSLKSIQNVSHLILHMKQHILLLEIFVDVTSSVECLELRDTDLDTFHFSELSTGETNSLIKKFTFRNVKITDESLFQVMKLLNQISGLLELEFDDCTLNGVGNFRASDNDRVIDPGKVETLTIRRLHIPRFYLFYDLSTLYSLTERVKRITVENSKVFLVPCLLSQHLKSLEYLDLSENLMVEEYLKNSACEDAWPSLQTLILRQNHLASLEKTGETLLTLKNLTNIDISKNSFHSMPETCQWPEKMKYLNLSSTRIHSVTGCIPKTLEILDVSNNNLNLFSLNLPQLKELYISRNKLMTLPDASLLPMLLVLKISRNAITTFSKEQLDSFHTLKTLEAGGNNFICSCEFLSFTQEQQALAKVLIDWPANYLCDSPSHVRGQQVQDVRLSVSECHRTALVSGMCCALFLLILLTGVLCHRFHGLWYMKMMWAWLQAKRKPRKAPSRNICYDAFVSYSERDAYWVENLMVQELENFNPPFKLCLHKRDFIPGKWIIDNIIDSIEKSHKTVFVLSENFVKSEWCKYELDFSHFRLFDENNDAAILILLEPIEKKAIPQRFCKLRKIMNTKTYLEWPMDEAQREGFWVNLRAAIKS

CCCCCCCCCCCC(=O)O [lauric acid]
IL-1α expression induced by fatty acid (immunoblot) [1]: induced | effect on NFκB activation induced by PamCAG [2]: potentiated
